Experiment [1] has as its target T1, KARRIKIN INSENSITIVE2 (KAI2) (Arabidopsis thaliana, UniProt Q9SZU7).
T1 construct: full-length, recombinant from E. coli, His tag removed
T1 sequence (Q9SZU7 1-270): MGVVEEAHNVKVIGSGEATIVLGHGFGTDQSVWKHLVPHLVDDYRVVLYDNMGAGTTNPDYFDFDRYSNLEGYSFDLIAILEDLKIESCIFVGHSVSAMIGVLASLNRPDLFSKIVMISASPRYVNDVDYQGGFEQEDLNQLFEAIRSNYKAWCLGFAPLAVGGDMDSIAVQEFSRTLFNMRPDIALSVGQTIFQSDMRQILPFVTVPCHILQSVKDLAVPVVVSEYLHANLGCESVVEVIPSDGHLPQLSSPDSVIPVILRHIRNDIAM
The experiment can be described thus: ITC ([…] °C); supported by CPM thermal shift. The experiment is classed as binding.

In experiment [2] the target is T2, KAI2^ply2 (KAI2^A219V) (Arabidopsis thaliana, UniProt Q9SZU7, A219V).
T2 construct: full-length, recombinant from E. coli, His tag removed
The experiment can be described thus: ITC ([…] °C); strongly impaired binding, only marginal change in CPM assay.

In article PMC6022639, “A missense allele of KARRIKIN-INSENSITIVE2 impairs ligand-binding and downstream signaling in Arabidopsis thaliana” (Journal of Experimental Botany, 2018) one finds Kd data, which are given here for one molecule.

The term Kd denotes the concentration at which binding is half-saturated.

T2 sequence (Q9SZU7 whole entry A219V): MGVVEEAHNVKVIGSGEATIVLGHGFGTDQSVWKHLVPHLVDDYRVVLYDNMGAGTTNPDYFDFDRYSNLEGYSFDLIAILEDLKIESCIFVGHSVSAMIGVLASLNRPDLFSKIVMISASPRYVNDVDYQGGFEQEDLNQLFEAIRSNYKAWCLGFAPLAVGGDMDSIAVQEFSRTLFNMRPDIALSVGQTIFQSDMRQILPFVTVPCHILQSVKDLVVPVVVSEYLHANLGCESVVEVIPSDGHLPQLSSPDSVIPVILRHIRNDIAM

Regarding `Cc1c2ccocc-2oc1=O` [KAR1, 3-methyl-2H-furo[2,3-c]pyran-2-one], the values for the dissociation constant Kd in experiment [1] and in experiment [2] were 147 µM and 2860 µM, respectively.
